We go through 15 molecules from ChEMBL document CHEMBL5223104, “Discovery of triazenyl triazoles as Nav1.1 channel blockers for treatment of epilepsy” (Bioorg Med Chem Lett, 2022).

Calls of active or inactive are those of the source. The calls are words filed in the database; no cut-off is given here.

Data set [1] concerns the target Sodium channel protein type 1 subunit alpha (Homo sapiens) (UniProt P35498). Briefly: Modulator activity at human Nav1.1 expressed in human Flp-In-T-REx-293 cells assessed as change in half inactivation potential at 100 uM by whole cell patch clamp electrophysiology assay. It is filed as cell-based.
Data set [2] shares this target. The experiment in a line: Modulator activity at human Nav1.1 expressed in human Flp-In-T-REx-293 cells assessed as change in half activation potential at 100 uM measured at holding potential of -120 mV by whole cell patch clamp electrophysiology assay. It is filed as cell-based. Background: Patch clamp records ionic current or voltage across a cell membrane.
The target is the same in data set [3]. Briefly: Modulator activity at human Nav1.1 expressed in human Flp-In-T-REx-293 cells assessed as half inactivation potential at 100 uM by whole cell patch clamp electrophysiology assay. The class given is cell-based.
The target is the same in data set [4]. The experiment in a line: Modulator activity at human Nav1.1 expressed in human Flp-In-T-REx-293 cells assessed as half activation potential at 100 uM measured at holding potential of -120 mV by whole cell patch clamp electrophysiology assay. It is filed as cell-based.
The test system of data set [5] is Mus musculus. The experiment in a line: Anti-seizure activity against PTZ-induced ICR mouse seizure model assessed as increase in average latency to stage 2 at 50 mg/kg, IG incubated for 1 hrs followed by PTZ stimulation and measured <30 mins. The class given is functional, organism-based. The following applies: time < 1.5 hrs.
The test system of data set [6] is Mus musculus. Briefly: Anti-seizure activity against PTZ-induced ICR mouse seizure model assessed as decrease in seizure severity stage at 50 mg/kg, IG incubated for 1 hrs followed by PTZ stimulation and measured <30 mins. As to conditions: time < 1.5 hrs. It is filed as functional, organism-based.
For data set [7], the system named is Mus musculus. Briefly: Anti-seizure activity against ICR mouse […] assessed as decrease in seizure stage at 50 mg/kg, IG incubated for 1 hrs followed by PTZ stimulation. It is filed as functional, organism-based.
Data set [8] concerns Mus musculus. Briefly: Anti-seizure activity against PTZ-induced ICR mouse seizure model assessed as increase in average latency to stage 6 at 50 mg/kg, IG incubated for 1 hrs followed by PTZ stimulation and measured <30 mins. The following applies: time < 1.5 hrs. It is filed as functional, organism-based.
Data set [9] has as its system Mus musculus. The experiment in a line: Anti-seizure activity against PTZ-induced ICR mouse seizure model assessed as increase in survival rate at 50 mg/kg, IG incubated for 1 hrs followed by PTZ stimulation and measured <30 mins. It is filed as functional, organism-based. The following applies: time < 1.5 hrs.
Data set [10] can be described thus: Apparent clearance during terminal phase in Sprague-Dawley rat at 50 mg/kg, po. It is filed as ADME, organism-based. The following applies: in vivo.
The nature of data set [11]: Oral bioavailability in Sprague-Dawley rat at 50 mg/kg. As to conditions: in vivo. It is filed as ADME, organism-based.
Data set [12] can be described thus: Cmax in Sprague-Dawley rat at 50 mg/kg, po. Details: dose 50 mg/kg, route po. As to conditions: in vivo. It is filed as ADME, organism-based.
Data set [13] in a line: Half life in Sprague-Dawley rat at 50 mg/kg, po. It is filed as ADME, organism-based. As to conditions: in vivo.
A short description of data set [14]: Tmax in Sprague-Dawley rat at 10 mg/kg, iv. It is filed as ADME, organism-based. The following applies: in vivo.
The nature of data set [15]: Tmax in Sprague-Dawley rat at 50 mg/kg, po. It is filed as ADME, organism-based. The following applies: in vivo.
The nature of data set [16]: Apparent volume of distribution during terminal phase in Sprague-Dawley rat at 10 mg/kg, iv. The class given is ADME, organism-based. As to conditions: in vivo.
For data set [17], the system named is Mus musculus. The experiment in a line: Anti-seizure activity against ICR mouse […] assessed as increase in survival rate at 50 mg/kg, IG incubated for 1 hrs followed by PTZ stimulation. The class given is functional, organism-based.
Data set [18] in a line: Half life in Sprague-Dawley rat at 10 mg/kg, iv. It is filed as ADME, organism-based. As to conditions: in vivo.
Data set [19] can be described thus: Apparent volume of distribution during terminal phase in Sprague-Dawley rat at 50 mg/kg, po. The class given is ADME, organism-based. As to conditions: in vivo, read-out: Vz/F.
A short description of data set [20]: AUClast in Sprague-Dawley rat plasma at 50 mg/kg, po. As to conditions: in vivo. Details: dose 50 mg/kg, route po. It is filed as ADME, organism-based.
The test system of data set [21] is Mus musculus. Briefly: Anti-seizure activity against ICR mouse […] assessed as decrease in tonic clonic seizure duration at 50 mg/kg, IG incubated for 1 hrs followed by PTZ stimulation. It is filed as functional, organism-based. (The maximal electroshock test induces tonic seizures with an electrical stimulus.)
Data set [22] relates to Mus musculus. The experiment in a line: Anti-seizure activity against ICR mouse […] assessed as increase in latency duration in stage 3 at 50 mg/kg, IG incubated for 1 hrs followed by PTZ stimulation. The class given is functional, organism-based.
Data set [23] can be described thus: AUClast in Sprague-Dawley rat plasma at 10 mg/kg, iv. It is filed as ADME, organism-based. Details: dose 10 mg/kg, route iv. As to conditions: in vivo.
Data set [24] can be described thus: Apparent clearance during terminal phase in Sprague-Dawley rat at 10 mg/kg, iv. The class given is ADME, organism-based. As to conditions: in vivo.
The nature of data set [25]: Cmax in Sprague-Dawley rat at 10 mg/kg, iv. The class given is ADME, organism-based. Details: dose 10 mg/kg, route iv. As to conditions: in vivo.

For `CN(C)/N=N/c1c(C(N)=O)nnn1Cc1ccc(F)cc1F`, the delta(V1/2) in [1] was -4.36 mV; in [2] it was -4.15 mV. The V1/2 in data set [3] is -63.1 mV; in [4] it was -36.5 mV.
In the case of `CN(C)/N=N/c1c(C(=O)NCc2ccccc2)nnn1Cc1c(F)cccc1F`, the delta(V1/2) in [1] was -11.3 mV; in [2] it was 1.95 mV. Further, the outcome in the data set with Mus musculus [5], in the data set on Mus musculus [6], with Mus musculus [8] and in the data set on Mus musculus [9] was Active. In addition, in the data set on Mus musculus [7], the outcome was inactive. The V1/2 in data set [3] is -78.8 mV; in data set [4], -36.2 mV.
With `CN(C)/N=N/c1c(C(=O)Nc2ccccc2)nnn1Cc1c(F)cccc1F`, the delta(V1/2) in data set [1] is -5.55 mV; in data set [2] it was -1.64 mV. The V1/2 was -73 mV in data set [3] and -36.5 mV in data set [4].
As to `CN(C)/N=N/c1c(C(N)=O)nnn1Cc1ccc(F)cc1`, the delta(V1/2) in data set [1] was -4 mV; in data set [2], -0.99 mV. The V1/2 in [3] is -62 mV; in data set [4], -39 mV.
On the same counts, the results for `CN(C)/N=N/c1c(C(N)=O)nnn1Cc1ccccc1Cl` are -3.13 mV, -1.7 mV, -62.9 mV and -42.7 mV.
Taken in the same sequence, the figures for `COC(=O)CCCNC(=O)c1nnn(Cc2c(F)cccc2F)c1/N=N/N(C)C` were -4.72 mV, -1.56 mV, -71.3 mV and -35.7 mV.
Taken in the same sequence, the figures for `CNC(=O)c1nnn(Cc2c(F)cccc2F)c1/N=N/N(C)C` were -6.54 mV, -4.56 mV, -69.6 mV and -39.5 mV.
In the case of `NC(=O)c1cn(Cc2c(F)cccc2F)nn1`, the delta(V1/2) in data set [1] is -7.01 mV; in [2], -7.39 mV. For the same molecule, the V1/2 in [3] is -66.7 mV; in [4], -41.3 mV.
The bioavailability is dose-corrected exposure relative to a reference, in per cent. One may read the Cmax as the maximum level reached in the sampled fluid or tissue. As usually defined, the Tmax is the time from dosing to the highest level. In the case of `CN(C)/N=N/c1c(C(N)=O)nnn1Cc1c(F)cccc1F`, the CLz/F was 169 mL/min/kg in data set [10] and 54.2 mL/min/kg in [24]. Moreover, the values for the delta(V1/2) in data set [1] and in data set [2] were -10.1 mV and -1.81 mV, respectively. In [11], this molecule had a bioavailability of 34.3%. Also, the result in the data set with Mus musculus [5], in the data set with Mus musculus [6], with Mus musculus [7], in the data set on Mus musculus [17], in the data set on Mus musculus [21] and in the data set with Mus musculus [22] was Active. Besides, the result in the data set on Mus musculus [8] and in the data set with Mus musculus [9] was Active. The Cmax in data set [12] came to 4496.74 ng/mL; in data set [25], 5203.99 ng/mL. In addition, the t1/2 is 63 min in data set [13] and 11.4 min in [18]. The Tmax in data set [14] and in data set [15] was 10.2 min throughout. For the same molecule, the Vz/F in [16] worked out at 0.93 L/kg. Moreover, the V1/2 in data set [3] is -69.8 mV; in [4] it was -46.1 mV. In addition, the Vd/F in [19] amounted to 13.6 L/kg. For the same molecule, the AUClast in [20] turned out to be 5460 ng·h/mL; in data set [23] it was 3190 ng·h/mL.
For `Cc1ccc(Cn2nnc(C(N)=O)c2/N=N/N(C)C)cc1`, the delta(V1/2) in data set [1] is -3.93 mV; in [2] it was -1.05 mV. In addition, the V1/2 was -66.2 mV in data set [3] and -45.4 mV in data set [4].
Regarding `CN(C)/N=N/c1c(C(N)=O)nnn1Cc1ccccc1F`, the results for the delta(V1/2) in data set [1] and in data set [2] were -4.73 mV and -3.11 mV, respectively. Besides, the figures for the V1/2 in [3] and in [4] were -66.6 mV and -30.9 mV, respectively.
Turning to `CN(C)/N=N/c1c(C(N)=O)nnn1Cc1ccccc1`, the results for the delta(V1/2) in data set [1] and in [2] were -3.79 mV and -1.5 mV, respectively. Also, the V1/2 is -64.2 mV in data set [3] and -43.2 mV in data set [4].
As to `CN(C)/N=N/c1c(C(=O)NC2CC2)nnn1Cc1c(F)cccc1F`, the delta(V1/2) in data set [1] is -3.87 mV; in data set [2] it was -2.85 mV. The V1/2 in data set [3] was -64.2 mV; in data set [4], -32.4 mV.
As for `CN(C)/N=N/c1c(C(N)=O)nnn1-c1c(F)cccc1F`, the delta(V1/2) in data set [1] is -4.24 mV; in data set [2] it was -1.09 mV. Besides, the V1/2 in data set [3] is -64.3 mV; in data set [4] it was -35.6 mV.
Taken in the same sequence, the figures for `CN(C)/N=N/c1c(C(N)=O)nnn1CCc1c(F)cccc1F` were -0.74 mV, -2.65 mV, -61.5 mV and -31.9 mV.
